Data from patent US9708321B2, “Spiro-quinazolinone derivatives and their use as positive allosteric modulators of mGluR4” (Merck Patent GmbH, priority 2013, dated 2017).

What follows are compounds tested against T1, hmGluR4 (Homo sapiens, UniProt Q14833) (assay: HEK-293 mGluR4 cells cAMP assay with EC20 L-Glutamate (HTRF)). Settings: not given.
T1 construct: host or cells: HEK293T
Format: cell-based
Method in brief: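 PAM mode in mGluR4 HEK293T suspension cells, glutamine-starved overnight; 10 μM forskolin (final) with EC20 L-glutamate (2.3 μM), 2000 cells/well, 30 min at 37 °C. cAMP measured by two-step HTRF after 60 min at room temperature. Basal control EC20 glutamate; EC100 400 μM glutamate (2×).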

T1 sequence (Q14833 33-912): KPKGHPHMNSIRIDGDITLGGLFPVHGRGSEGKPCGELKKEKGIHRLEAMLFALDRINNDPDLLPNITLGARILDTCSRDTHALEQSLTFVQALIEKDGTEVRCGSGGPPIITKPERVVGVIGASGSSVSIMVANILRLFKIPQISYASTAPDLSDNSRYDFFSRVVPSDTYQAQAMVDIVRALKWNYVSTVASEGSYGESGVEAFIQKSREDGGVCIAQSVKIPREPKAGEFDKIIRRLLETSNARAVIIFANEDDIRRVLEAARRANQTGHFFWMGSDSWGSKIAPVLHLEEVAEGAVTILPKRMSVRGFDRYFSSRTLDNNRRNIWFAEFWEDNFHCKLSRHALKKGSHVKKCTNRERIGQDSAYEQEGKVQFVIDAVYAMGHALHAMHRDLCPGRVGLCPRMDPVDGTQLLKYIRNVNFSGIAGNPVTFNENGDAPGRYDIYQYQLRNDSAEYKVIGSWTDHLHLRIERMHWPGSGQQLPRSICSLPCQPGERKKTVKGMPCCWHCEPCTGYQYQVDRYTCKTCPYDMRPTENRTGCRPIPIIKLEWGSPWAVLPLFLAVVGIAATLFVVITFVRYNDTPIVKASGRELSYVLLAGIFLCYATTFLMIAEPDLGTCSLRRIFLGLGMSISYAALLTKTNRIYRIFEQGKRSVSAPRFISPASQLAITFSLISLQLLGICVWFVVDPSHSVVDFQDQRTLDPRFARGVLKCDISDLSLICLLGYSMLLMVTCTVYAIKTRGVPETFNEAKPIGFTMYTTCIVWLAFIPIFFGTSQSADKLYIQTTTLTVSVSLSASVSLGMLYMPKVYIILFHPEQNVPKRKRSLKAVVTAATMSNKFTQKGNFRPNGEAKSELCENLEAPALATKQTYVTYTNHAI

SMILES	EC50 [µM]
COc1ccc(N2C(=O)c3ccc(Br)cc3NC23CCN(Cc2ccc(F)c(F)c2)CC3)cc1F [Compound 24, 7′-Bromo-1-(3,4-difluorobenzyl)-3′-(3-fluoro-4-methoxyphenyl)-1′H-spiro[piperidine-4,2′-quinazolin]-4′(3′H)-one]	< 1

Same assay, conditions: positive allosteric activity at EC20 L-Glutamate, 10 μM Forskolin, HEK293T mGluR4 cells, cAMP HTRF; read-out: hrmGluR4/HEK293T-hmGluR4 (EC50)

SMILES	EC50 [µM]
CC(=O)c1cc2c(cc1Br)C(=O)N(c1ccc(OC(F)(F)F)cc1)C1(CCN(Cc3ccc(F)c(F)c3)CC1)N2 [Compound 12, 7′-Acetyl-6′-bromo-1-(3,4-difluorobenzyl)-3′-(4-(trifluoromethoxy)phenyl)-1′H-spiro[piperidine-4,2′-quinazolin]-4′(3′H)-one]	< 1
O=C1c2ccc(F)cc2NC2(CCN(Cc3ccc(F)c(F)c3)CC2)N1c1ccc(Cl)cc1 [Compound 64, 3′-(4-Chlorophenyl)-1-(3,4-difluorobenzyl)-7′-fluoro-1′H-spiro[piperidine-4,2′-quinazolin]-4′(3′H)-one]	< 1
O=C1c2ccc(F)cc2NC2(CCN(Cc3ccc(F)c(F)c3)CC2)N1c1ccc(Br)cc1 [Compound 51, 3′-(4-Bromophenyl)-1-(3,4-difluorobenzyl)-7′-fluoro-1′H-spiro[piperidine-4,2′-quinazolin]-4′(3′H)-one]	< 1
COCCOc1ccc(N2C(=O)c3ccc(F)cc3NC23CN(Cc2ccc(Cl)cc2)C3)cc1 [Compound 123, 1-(4-Chlorobenzyl)-7′-fluoro-3′-(4-(2-methoxyethoxyl)phenyl)-1′H-spiro[azetidine-3,2′-quinazolin]-4′(3′H)-one]	1 to 10
N#Cc1ccc2c(c1)NC1(CCN(Cc3ccc(F)c(F)c3)CC1)N(c1ccc(OC(F)(F)F)cc1)C2=O [Compound 79, 1-(3,4-Difluorobenzyl)-4′-oxo-3′-(4-(trifluoromethoxy)phenyl)-3′,4′-dihydro-1′H-spiro[piperidine-4,2′-quinazoline]-7′-carbonitrile]	1 to 10
COc1ccc(N2C(=O)c3ccccc3NC23CN(Cc2ccccc2OC(F)(F)F)C3)cc1 [Compound 65, 3′-(4-Methoxyphenyl)-1-(2-(trifluoromethoxy)benzyl)-1′H-spiro[azetidine-3,2′-quinazolin]-4′(3′H)-one]	< 1
COc1ccc(N2C(=O)c3ccccc3NC23CCN(Cc2cc(C)cc(C)c2)CC3)cc1 [Compound 105, 1-(3,5-Dimethylbenzyl)-3′-(4-methoxyphenyl)-1′H-spiro[piperidine-4,2′-quinazolin]-4′(3′H)-one]	1 to 10
COCCOc1ccc2c(c1)NC1(CCN(Cc3ccc(F)c(F)c3)CC1)N(c1ccc(OC(F)(F)F)cc1)C2=O [Compound 121, 1-(3,4-Difluorobenzyl)-7′-(2-methoxyethoxy)-3′-(4-(trifluoromethoxy)phenyl)-1′H-spiro[piperidine-4,2′-quinazolin]-4′(3′H)-one]	1 to 10
Cc1ccc(CN2CCC3(CC2)Nc2cc(Br)ccc2C(=O)N3c2ccc(OC(F)(F)F)cc2)o1 [Compound 113, 7′-Bromo-1-((5-methylfuran-2-yl)methyl)-3′-(4-(trifluoromethoxy)phenyl)-1′H-spiro[piperidine-4,2′-quinazolin]-4′(3′H)-one]	1 to 10
COc1ccc(N2C(=O)c3ccc(-c4cncs4)cc3NC23CCN(Cc2ccc(F)c(F)c2)CC3)cc1 [Compound 45, 1-(3,4-Difluorobenzyl)-3′-(4-methoxyphenyl)-7′-(thiazol-5-yl)-1′H-spiro[piperidine-4,2′-quinazolin]-4′(3′H)-one]	< 1
CCOC(=O)c1ccc2c(c1)NC1(CCN(Cc3ccc(F)c(F)c3)CC1)N(c1ccc(OC)cc1)C2=O [Compound 1, Ethyl 1-(3,4-difluorobenzyl)-3′-(4-methoxyphenyl)-4′-oxo-3′,4′-dihydro-1′H-spiro[piperidine-4,2′-quinazoline]-7′-carboxylate]	< 1
O=C1c2ccc(Br)cc2NC2(CCN(Cc3cccnc3)CC2)N1c1ccc(OC(F)(F)F)cc1 [Compound 118, 7′-Bromo-1-(pyridin-3-ylmethyl)-3′-(4-(trifluoromethoxy)phenyl)-1′H-spiro[piperidine-4,2′-quinazolin]-4′(3′H)-one]	1 to 10
COc1ccc(N2C(=O)c3ccccc3NC23CN(Cc2cccc(F)c2)C3)cc1 [Compound 93, 1-(3-Fluorobenzyl)-3′-(4-methoxyphenyl)-1′H-spiro[azetidine-3,2′-quinazolin]-4′(3′H)-one]	1 to 10
COc1ccc(N2C(=O)c3ccc(-c4cccnc4)cc3NC23CCN(Cc2ccc(F)c(F)c2)CC3)cc1 [Compound 40, 1-(3,4-Difluorobenzyl)-3′-(4-methoxyphenyl)-7′-(pyridin-3-yl)-1′H-spiro[piperidine-4,2′-quinazolin]-4′(3′H)-one]	< 1
CC(c1ccc(F)c(F)c1)N1CCC2(CC1)Nc1cc(Br)ccc1C(=O)N2c1ccc(OC(F)(F)F)cc1 (centres unmarked) [Compound 8, 7′-Bromo-1-(1-(3,4-difluorophenyl)ethyl)-3′-(4-(trifluoromethoxy)phenyl)-1′H-spiro[piperidine-4,2′-quinazolin]-4′(3′H)-one]	< 1
COCCOc1ccc(N2C(=O)c3ccc(F)cc3NC23CCN(Cc2ccc(F)c(F)c2)CC3)cc1 [Compound 106, 1-(3,4-difluorobenzyl)-7′-fluoro-3′-(4-(2-methoxyethoxyl)phenyl)-1′H-spiro[piperidine-4,2′-quinazolin]-4′(3′H)-one]	1 to 10

SMILES	EC50 [µM]
CCOC(=O)c1ccc2c(c1)NC1(CN(C(c3ccc(F)c(F)c3)C(F)(F)F)C1)N(c1ccc(OC(F)(F)F)cc1)C2=O (centres unmarked) [Compound 34, Ethyl 1-(1-(3,4-difluorophenyl)-2,2,2-trifluoroethyl)-4′-oxo-3′-(4-(trifluoromethoxy)phenyl)-3′,4′-dihydro-1′H-spiro[azetidine-3,2′-quinazoline]-7′-carboxylate]	< 1
COc1ccc(N2C(=O)c3ccc(Br)cc3NC23CCN(Cc2ccc(F)c(F)c2)CC3)cc1 [Compound 17, 7′-Bromo-1-(3,4-difluorobenzyl)-3′-(4-methoxyphenyl)-1′H-spiro[piperidine-4,2′-quinazolin]-4′(3′H)-one]	< 1
CCc1ccc(CN2CC3(C2)Nc2ccccc2C(=O)N3c2ccc(OC)cc2)cc1 [Compound 112, 1-(4-Ethylbenzyl)-3′-(4-methoxyphenyl)-1′H-spiro[azetidine-3,2′-quinazolin]-4′(3′H)-one]	1 to 10
COc1ccc(N2C(=O)c3ccccc3NC23CCN(Cc2ccc(F)cc2)CC3)cc1 [Compound 114, 1-(4-Fluorobenzyl)-3′-(4-methoxyphenyl)-1′H-spiro[piperidine-4,2′-quinazolin]-4′(3′H)-one]	1 to 10
COc1ccc(N2C(=O)c3ccccc3NC23CN(Cc2ccccc2F)C3)cc1 [Compound 84, 1-(2-Fluorobenzyl)-3′-(4-methoxyphenyl)-1′H-spiro[azetidine-3,2′-quinazolin]-4′(3′H)-one]	1 to 10
COc1ccc(N2C(=O)c3ccccc3NC23CN(Cc2ccc(Cl)s2)C3)cc1 [Compound 98, 1-((5-Chlorothiophen-2-yl)methyl)-3′-(4-methoxyphenyl)-1′H-spiro[azetidine-3,2′-quinazolin]-4′(3′H)-one]	1 to 10
COc1ccc(N2C(=O)c3ccccc3NC23CCN(Cc2ccccc2OC(F)(F)F)CC3)cc1 [Compound 67, 3′-(4-Methoxyphenyl)-1-(2-(trifluoromethoxy)benzyl)-1′H-spiro[piperidine-4,2′-quinazolin]-4′(3′H)-one]	1 to 10
COc1ccc(N2C(=O)c3ccccc3NC23CN(Cc2ccc(Cl)cc2)C3)cc1 [Compound 85, 1-(4-Chlorobenzyl)-3′-(4-methoxyphenyl)-1′H-spiro[azetidine-3,2′-quinazolin]-4′(3′H)-one]	1 to 10
COc1ccc(N2C(=O)c3ccc(-c4ccc(CN(C)C)o4)cc3NC23CCN(Cc2ccc(F)c(F)c2)CC3)cc1 [Compound 117, 1-(3,4-Difluorobenzyl)-7′-(5-((dimethylamino)methyl)furan-2-yl)-3′-(4-methoxyphenyl)-1′H-spiro[piperidine-4,2′-quinazolin]-4′(3′H)-one]	1 to 10
O=C1c2ccc(C(F)(F)F)cc2NC2(CCN(Cc3cccc(Cl)c3)CC2)N1c1ccc(OC(F)(F)F)cc1 [Compound 10, 1-(3-Chlorobenzyl)-3′-(4-(trifluoromethoxy)phenyl)-7′-(trifluoromethyl)-1′H-spiro[piperidine-4,2′-quinazolin]-4′(3′H)-one]	< 1
O=C1c2ccc(Br)cc2NC2(CCN(Cc3ccccc3O)CC2)N1c1ccc(OC(F)(F)F)cc1 [Compound 49, 7′-Bromo-1-(2-hydroxybenzyl)-3′-(4-(trifluoromethoxy)phenyl)-1′H-spiro[piperidine-4,2′-quinazolin]-4′(3′H)-one]	< 1
Cc1cc2cc(N3C(=O)c4ccc(Br)cc4NC34CCN(Cc3ccc(F)c(F)c3)CC4)ccc2o1 [Compound 2, 7′-Bromo-1-(3,4-difluorobenzyl)-3′-(2-methylbenzofuran-5-yl)-1′H-spiro[piperidine-4,2′-quinazolin]-4′(3′H)-one]	< 1
COc1ccc(N2C(=O)c3ccc(Br)cc3OC23CCN(Cc2ccc(F)c(F)c2)CC3)cc1 [Compound 108, 7-Bromo-1′-(3,4-difluorobenzyl)-3-(4-methoxyphenyl)spiro[benzo[e][1,3]oxazine-2,4′-piperidin]-4(3H)-one]	1 to 10
Cn1cccc1CN1CCC2(CC1)Nc1cc(Br)ccc1C(=O)N2c1ccc(OC(F)(F)F)cc1 [Compound 120, 7′-Bromo-1-((1-methyl-1H-pyrrol-2-yl)methyl)-3′-(4-(trifluoromethoxy)phenyl)-1′H-spiro[piperidine-4,2′-quinazolin]-4′(3′H)-one]	1 to 10
O=C1c2ccc(Br)cc2NC2(CCN(Cc3ccc(F)c(F)c3)CC2)N1c1ccc(C(F)(F)F)cc1 [Compound 52, 7′-Bromo-1-(3,4-difluorobenzyl)-3′-(4-(trifluoromethyl)phenyl)-1′H-spiro[piperidine-4,2′-quinazolin]-4′(3′H)-one]	< 1
